According to patent publication US20230116972A1, “CD38 MODULATORS AND METHODS OF USE THEREOF” (Cytokinetics, Inc., priority 2021, published 2023):
Values belong to the molecule of their own block, whether it stands above or below them.

What was measured:
mouse CD38 = biological target: T1, mouse CD38 (Mus musculus, UniProt P56528); assay: mouse recombinant CD38 enzyme assay (hydrolysis of NAD+); type: biochemical; details: read-out: mCD38 BioChem IC50
T1 sequence (P56528 1-304): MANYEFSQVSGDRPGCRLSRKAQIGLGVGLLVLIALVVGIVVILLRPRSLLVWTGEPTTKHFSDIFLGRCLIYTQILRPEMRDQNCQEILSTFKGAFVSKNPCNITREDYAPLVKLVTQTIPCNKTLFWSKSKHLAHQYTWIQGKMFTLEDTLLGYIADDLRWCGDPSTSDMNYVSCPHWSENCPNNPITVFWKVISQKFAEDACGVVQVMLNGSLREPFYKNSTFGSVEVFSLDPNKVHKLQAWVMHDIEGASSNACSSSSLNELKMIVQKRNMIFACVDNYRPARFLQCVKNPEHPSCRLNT
Method: (§1) Compounds described herein were assayed for their ability to inhibit the hydrolysis of NAD+ by the protein CD38. The human and mouse recombinant enzyme assays measure the inhibition of the enzyme activity by compounds using recombinant enzymes and substrates in a buffered cell-free system. The assay conditions closely mimic cellular environments. Dose responses were measured using an assay to detect the hydrolysis of NAD+. All experiments were performed in the 384-well format. […] Enzyme reactions were initiated with the addition of 10 μL of a solution containing NAD+ substrate. Subsequent detection of remaining NAD+ was determined by first converting NAD+ to NADH using alcohol dehydrogenase, then using the resulting NADH to reduce resazurine to the fluorescent product resorufin. […] Following an incubation of 60 min at ambient temperature, 10 μL of 120 mM ethanol+20 U/ml alcohol dehydrogenase+30 mM semicarbazide+0.03 mM CD38 inhibitor in 50 mM HEPES, pH 7.5, 0.2 mg/ml BSA, was added and incubated at ambient temperature for 15 min. Then 10 μl 0.32 mM NaOH was added to stop the ADH reaction (plates incubated at ambient temperature for 15 min), followed by 30 μL of 0.05 mM resazurine+1000 mU/ml Diaphorase in 200 mM Tris-HCl, pH 7.7 for 15 min at ambient temperature. The plates were read for fluorescence (Excitation/Emission=540 nm/590 nm) using an EnVision plate reader. […] Note that, in Table 4, the “Compound No” corresponds to the compound numbers in Table 1.

human CD38 = biological target: T2, human CD38 (Homo sapiens, UniProt P28907); assay: human recombinant CD38 enzyme assay (hydrolysis of NAD+); type: biochemical; details: human recombinant CD38, 0.4 nM enzyme, 62.5 μM NAD+; read-out: hCD38 BioChem IC50
T2 sequence (P28907 1-300): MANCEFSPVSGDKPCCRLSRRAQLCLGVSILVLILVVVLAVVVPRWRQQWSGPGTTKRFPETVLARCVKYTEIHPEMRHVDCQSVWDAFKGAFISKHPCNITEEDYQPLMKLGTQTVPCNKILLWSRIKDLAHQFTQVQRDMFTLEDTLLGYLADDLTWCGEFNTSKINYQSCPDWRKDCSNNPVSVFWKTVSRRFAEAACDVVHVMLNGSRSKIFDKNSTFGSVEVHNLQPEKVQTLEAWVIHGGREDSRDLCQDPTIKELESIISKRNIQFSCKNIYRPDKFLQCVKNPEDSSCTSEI
Method: as §1

Compound: O=C(NC1CCS(=O)(=O)CC1)c1cc(C2CC2)nc(-c2cncs2)n1 [Compound 142, 6-cyclopropyl-N-(1,1-dioxidotetrahydro-2H-thiopyran-4-yl)-2-(thiazol-5-yl)pyrimidine-4-carboxamide]
- IC50 (mouse CD38): 161 nM
- IC50 (human CD38): 1720 nM

Compound: Cc1ccc(NC(=O)c2cccc(-c3cncs3)n2)cn1 [Compound 51, N-(6-methylpyridin-3-yl)-6-(thiazol-5-yl)picolinamide]
- IC50 (mouse CD38): 487 nM
- IC50 (human CD38): 1200 nM

Compound: CO[C@H]1CC[C@H](NC(=O)c2cc(N3CCCC3)cc(-n3ccnc3)n2)CC1 [Compound 180, 6-(1H-imidazol-1-yl)-N-(4-methoxycyclohexyl)-4-(pyrrolidin-1-yl)picolinamide]
- IC50 (mouse CD38): 8 nM
- IC50 (human CD38): 78 nM

Compound: O=C(N[C@H]1C[C@@H](c2ccc(C(F)(F)F)nc2)C1)c1nccc(-n2ccnc2)n1 [Compound 272, 4-(1H-imidazol-1-yl)-N-((1s,3s)-3-(6-(trifluoromethyl)pyridin-3-yl)cyclobutyl)pyrimidine-2-carboxamide]
- IC50 (mouse CD38): 224 nM
- IC50 (human CD38): 1340 nM

Compound: Cn1cncc1-c1cc(C(C)(C)C)nc(C(=O)Nc2ccc(C(F)(F)F)nc2)n1 [Compound 190, 4-(tert-butyl)-6-(1-methyl-1H-imidazol-5-yl)-N-(6-(trifluoromethyl)pyridin-3-yl)pyrimidine-2-carboxamide]
- IC50 (mouse CD38): 427 nM
- IC50 (human CD38): 502 nM

Compound: Cn1cncc1-c1nc(C(=O)N[C@H]2CC[C@H](OC(F)(F)F)CC2)cc(C2CCC(F)(F)CC2)n1 [Compound 322, 6-(4,4-difluorocyclohexyl)-2-(1-methyl-1H-imidazol-5-yl)-N-((1r,4r)-4-(trifluoromethoxy)cyclohexyl)pyrimidine-4-carboxamide]
- IC50 (mouse CD38): 6.9 nM
- IC50 (human CD38): 41.8 nM

Compound: COC[C@H]1CC[C@H](NC(=O)c2ccnc(-c3cncs3)n2)CC1 [Compound 139, N-((1r,4r)-4-(methoxymethyl)cyclohexyl)-2-(thiazol-5-yl)pyrimidine-4-carboxamide]
- IC50 (mouse CD38): 232 nM
- IC50 (human CD38): 1010 nM

Compound: Cn1cncc1-c1ccnc(C(=O)N[C@H]2C[C@](O)(c3ccccc3)C2)n1 [Compound 310, N-((1s,3s)-3-hydroxy-3-phenylcyclobutyl)-4-(1-methyl-1H-imidazol-5-yl)pyrimidine-2-carboxamide]
- IC50 (mouse CD38): 105 nM
- IC50 (human CD38): 354 nM

Compound: O=C(Nc1ccc(C(F)F)nc1)c1cc(C2CCC2)nc(-n2ccnc2)n1 [Compound 186, 6-cyclobutyl-N-(6-(difluoromethyl)pyridin-3-yl)-2-(1H-imidazol-1-yl)pyrimidine-4-carboxamide]
- IC50 (mouse CD38): 5 nM
- IC50 (human CD38): 10 nM

Compound: O=C(NC1CCC(F)(F)CC1)c1cc(C2CCC2)nc(-n2ccnc2)n1 [Compound 185, 6-cyclobutyl-N-(4,4-difluorocyclohexyl)-2-(1H-imidazol-1-yl)pyrimidine-4-carboxamide]
- IC50 (mouse CD38): 14 nM
- IC50 (human CD38): 30 nM

Compound: O=C(NC1CC2(COC2)C1)c1nccc(-n2ccnc2)n1 [Compound 290, 4-(1H-imidazol-1-yl)-N-(2-oxaspiro[3.3]heptan-6-yl)pyrimidine-2-carboxamide]
- IC50 (mouse CD38): 191 nM
- IC50 (human CD38): 1220 nM

Compound: CO[C@H]1CC[C@H](NC(=O)c2cc(C3CC3)nc(-n3ccnc3)n2)CC1 [Compound 160, 6-cyclopropyl-2-(1H-imidazol-1-yl)-N-((1r,4r)-4-methoxycyclohexyl)pyrimidine-4-carboxamide]
- IC50 (mouse CD38): 4 nM
- IC50 (human CD38): 27 nM

Compound: CC(C)(C)c1cc(-n2ccnc2)nc(C(=O)Nc2ccc(C(F)F)nc2)n1 [Compound 188, 4-(tert-butyl)-N-(6-(difluoromethyl)pyridin-3-yl)-6-(1H-imidazol-1-yl)pyrimidine-2-carboxamide]
- IC50 (mouse CD38): 661 nM
- IC50 (human CD38): 1970 nM

Compound: O=C(NC1CN(c2ccccc2)C1)c1nccc(-n2ccnc2)n1 [Compound 262, 4-(1H-imidazol-1-yl)-N-(1-phenylazetidin-3-yl)pyrimidine-2-carboxamide]
- IC50 (mouse CD38): 232 nM
- IC50 (human CD38): 1840 nM

Compound: Cn1cncc1-c1ccnc(C(=O)NC2CC3(COC3)C2)n1 [Compound 306, 4-(1-methyl-1H-imidazol-5-yl)-N-(2-oxaspiro[3.3]heptan-6-yl)pyrimidine-2-carboxamide]
- IC50 (mouse CD38): 81.7 nM
- IC50 (human CD38): 357 nM

Compound: Cn1cncc1-c1ccnc(C(=O)NC2CCC(C)(C)OC2)n1 (stereo not drawn) [Compound 278, N-(6,6-dimethyltetrahydro-2H-pyran-3-yl)-4-(1-methyl-1H-imidazol-5-yl)pyrimidine-2-carboxamide]
- IC50 (mouse CD38): 67.9 nM
- IC50 (human CD38): 490 nM

Further lines, results first:

- IC50 (mouse CD38): 1.5 nM
- IC50 (human CD38): 11 nM
Compound: Cn1cncc1-c1nc(C(=O)Nc2ccc(C(C)(C)O)nc2)cc(C2CCOCC2)n1 [Compound 332, N-(6-(2-hydroxypropan-2-yl)pyridin-3-yl)-2-(1-methyl-1H-imidazol-5-yl)-6-(tetrahydro-2H-pyran-4-yl)pyrimidine-4-carboxamide]

- IC50 (mouse CD38): 11.5 nM
- IC50 (human CD38): 41.4 nM
Compound: CO[C@H]1CC[C@H](NC(=O)c2nc(-c3cncn3C)ncc2C)CC1 [Compound 328, N-((1r,4r)-4-methoxycyclohexyl)-5-methyl-2-(1-methyl-1H-imidazol-5-yl)pyrimidine-4-carboxamide]

- IC50 (mouse CD38): 13.5 nM
- IC50 (human CD38): 28.7 nM
Compound: Cc1cnc(-c2cncn2C)nc1C(=O)N[C@H]1CC[C@H](OC(F)F)CC1 [Compound 335, N-((1r,4r)-4-(difluoromethoxy)cyclohexyl)-5-methyl-2-(1-methyl-1H-imidazol-5-yl)pyrimidine-4-carboxamide]

- IC50 (mouse CD38): 3.4 nM
- IC50 (human CD38): 12.8 nM
Compound: CO[C@H]1CC[C@H](NC(=O)c2nc(-c3cncn3C)ncc2F)CC1 [Compound 333, 5-fluoro-N-((1r,4r)-4-methoxycyclohexyl)-2-(1-methyl-1H-imidazol-5-yl)pyrimidine-4-carboxamide]

- IC50 (mouse CD38): 2.6 nM
- IC50 (human CD38): 22.1 nM
Compound: CO[C@H]1CC[C@H](NC(=O)c2cc(C3CC4(COC4)C3)nc(-c3cncn3C)n2)CC1 [Compound 327, N-((1r,4r)-4-methoxycyclohexyl)-2-(1-methyl-1H-imidazol-5-yl)-6-(2-oxaspiro[3.3]heptan-6-yl)pyrimidine-4-carboxamide]

- IC50 (mouse CD38): 30.1 nM
- IC50 (human CD38): 109 nM
Compound: CO[C@H]1CC[C@H](NC(=O)c2nc(C(F)F)cc(-n3ccnc3)n2)CC1 [Compound 346, 4-(difluoromethyl)-6-(1H-imidazol-1-yl)-N-((1r,4r)-4-methoxycyclohexyl)pyrimidine-2-carboxamide]

- IC50 (mouse CD38): 1.1 nM
- IC50 (human CD38): 3.5 nM
Compound: COc1ccc(NC(=O)c2cc(C3CCOCC3)nc(-c3cncn3C)n2)cn1 [Compound 355, N-(6-methoxypyridin-3-yl)-2-(1-methyl-1H-imidazol-5-yl)-6-(tetrahydro-2H-pyran-4-yl)pyrimidine-4-carboxamide]

- IC50 (mouse CD38): 2.9 nM
- IC50 (human CD38): 19.9 nM
Compound: Cn1cncc1-c1nc(C(=O)Nc2ccc(OC(F)F)nc2)cc(C2CCC(F)(F)CC2)n1 [Compound 342, 6-(4,4-difluorocyclohexyl)-N-(6-(difluoromethoxy)pyridin-3-yl)-2-(1-methyl-1H-imidazol-5-yl)pyrimidine-4-carboxamide]

- IC50 (mouse CD38): 2 nM
- IC50 (human CD38): 17.3 nM
Compound: Cn1cncc1-c1nc(C(=O)N[C@H]2CC[C@H](OCC(F)(F)F)CC2)cc(C2CCC(F)(F)CC2)n1 [Compound 339, 6-(4,4-difluorocyclohexyl)-2-(1-methyl-1H-imidazol-5-yl)-N-((1r,4r)-4-(2,2,2-trifluoroethoxy)cyclohexyl)pyrimidine-4-carboxamide]

- IC50 (mouse CD38): 1 nM
- IC50 (human CD38): 2.5 nM
Compound: Cn1cncc1-c1nc(C(=O)Nc2ccc(C(F)F)nc2)cc(C2CC3(COC3)C2)n1 [Compound 348, N-(6-(difluoromethyl)pyridin-3-yl)-2-(1-methyl-1H-imidazol-5-yl)-6-(2-oxaspiro[3.3]heptan-6-yl)pyrimidine-4-carboxamide]

- IC50 (mouse CD38): 3.8 nM
- IC50 (human CD38): 8.7 nM
Compound: Cn1cncc1-c1ncc(F)c(C(=O)N[C@H]2CC[C@H](OC(F)F)CC2)n1 [Compound 341, N-((1r,4r)-4-(difluoromethoxy)cyclohexyl)-5-fluoro-2-(1-methyl-1H-imidazol-5-yl)pyrimidine-4-carboxamide]
